Results: patent US6468991B1, “Method of treating rhinoviral infections” (Cyclis Pharmaceuticals, Inc., priority 1997, dated 2002)
Like-named read-outs stand apart in the source and are kept apart here.

Key:
[1] = tested on: A-549 (human lung carcinoma) cells; assay: Cytotoxicity by microscopic morphological changes in uninfected toxicity control wells
Rhinovirus Type 2 = assay: Rhinovirus yield reduction assay; settings: for ED50 (virus yield): second experiment
Procedure: After the second experiment, the microplate was frozen at −70° C., then thawed and the medium removed from the virus-infected wells and individually assayed for virus titer by adding 0.2 ml of serial 10-fold dilutions to a fresh monolayer of cells. The viral CPE, read 6 days later, was used as an infectivity endpoint.

[2] = tested on: Rhinovirus (RV) type 2, strain GPH; assay: Cytopathogenic effect (CPE) inhibition assay; settings: for EC50: A549 cells
Procedure: Cells: A-549 (human lung carcinoma) cells were obtained from the American Type Culture Collection (ATCC, Rockville, Md.). They were grown in Dulbecco's Minimum Essential Medium (DMEM, Gibco, Gaithersburg, Md.) supplemented with 10% fetal bovine serum (FBS, HyClone Laboratories, Logan, Utah). When the cells were infected with virus, the test medium contained 2% FBS with 0.1% NaHCO3 and 50 μg gentamicin/ml.
Virus: Rhinovirus (RV) type 2, strain GPH was obtained from the ATCC. The virus was passed in cells and a pool prepared, ampuled, and frozen at −80° C. An aliquot of the frozen virus was titrated in A-549 cells prior to use in the following experiments.
A portion of the original solution was then diluted 1:3.95 in DMEM to provide a final concentration of 632 μM.
In both treatment methods, cells were plated in 96-well flat-bottomed tissue culture microplates (Corning Glass Works, Corning, N.Y.) at 5×10^4 cells/well in DMEM growth medium, and incubated overnight at 37° C. to establish cell monolayers in each well. […] Approximately 5-10 minutes later, four wells at each drug concentration were exposed to 0.1 ml of test medium with virus, with two additional wells exposed to 0.1 ml of sterile medium only, the latter to serve as toxicity controls. A group of 6 infected wells received no test compound to serve as virus controls, and 6 additional wells received sterile medium only as normal cell controls.
In the first treatment method, the test compound was added to the cells immediately prior to virus exposure and remained on the cells until viral cytopathogenic effect (CPE) was determined. In the second treatment method, fresh test compound (diluted in medium) was added to the cells daily, after removing the previous medium, until such time as the CPE was measured.
The CPE from each well was scored from 0 (normal cells) to 4 (maximal, 100%, CPE). Morphological changes due to cytotoxicity were determined microscopically; this was graded as T (100% toxicity characterized by complete cell sloughing from plate), PVH (80% cytotoxicity), PH (60% cytotoxicity), P (40% cytotoxicity), PSI (20% cytotoxicity) and 0 (normal cells). Fifty percent effective (virus-inhibitory) doses (ED50) and 50% cytotoxic doses (CD50) were calculated by regression analysis for the CPE inhibition experiment.

[3] = drug present without medium change

Molecule | cytotoxicity observed ([1]; both experiments, A549 cells) | conclusion on inhibition of type 2 rhinovirus (Rhinovirus Type 2; overall conclusion from CPE and virus yield results) | ED90 concentration (virus yield) (Rhinovirus Type 2; same whether compound left on the cells or freshly added daily) [µM] | ED50 (virus yield) (Rhinovirus Type 2; drug changed every 24 hours) [µM] | ED50 (virus yield) (Rhinovirus Type 2; [3]) [µM] | inhibition of viral CPE ([2]; both methods, both experiments, compared with ribavirin) | EC50 ([2]; read-out: ED50, Expt. 1, 5 days' incubation at 37° C., drug changed every 24 hours) [µM] | EC50 ([2]; read-out: ED50, Expt. 1, 5 days' incubation at 37° C., drug present without medium change) [µM] | EC50 ([2]; read-out: ED50, Expt. 2, 3 days' incubation at 37° C., drug changed every 24 hours) [µM] | EC50 ([2]; read-out: ED50, Expt. 2, 3 days' incubation at 37° C., drug present without medium change) [µM] | CD50 ([1]; Expt. 1, 5 days' incubation at 37° C., drug changed every 24 hours, A549 cells) [µM] | CD50 ([1]; Expt. 1, 5 days' incubation at 37° C., drug present without medium change, A549 cells) [µM] | CD50 ([1]; Expt. 2, 3 days' incubation at 37° C., drug changed every 24 hours, A549 cells) [µM] | CD50 ([1]; Expt. 2, 3 days' incubation at 37° C., drug present without medium change, A549 cells) [µM] | CD50 ([1]; Table 2, second experiment, drug changed every 24 hours) [µM] | CD50 ([1]; Table 2, second experiment, drug present without medium change) [µM] | EC50 ([2]; Enterovirus, A549, 72 h, read-out: ED50, Expt. 2, 3 days' incubation at 37° C., drug present without medium change) [µM] | EC50 ([2]; Enterovirus, A549, 120 h, read-out: ED50, Expt. 1, 5 days' incubation at 37° C., drug present without medium change) [µM] | EC50 ([2]; Enterovirus, A549, read-out: ED50, Expt. 1, 5 days' incubation at 37° C., drug changed every 24 hours) [µM] | EC50 ([2]; Enterovirus, A549, read-out: ED50, Expt. 2, 3 days' incubation at 37° C., drug changed every 24 hours) [µM]
2′,3′-cyclophosphateadenylyl(2′,5′)adenylyl-(2′,5′)adenosine [Papirine AIII] | no cytotoxicity was observed | significant inhibitor of type 2 rhinovirus | 8 | 8 | 8 | significant inhibition of viral CPE was seen that exceeded the activity of the known positive inhibitor, ribavirin | 24 | 25 | 63 | 63 | – | – | – | – | – | – | – | – | – | –
NC(=O)c1ncn([C@@H]2O[C@H](CO)[C@@H](O)[C@H]2O)n1 [Ribavirin] | – | – | – | 102 | 53 | – | – | – | – | – | 2290 | 2290 | 740 | 740 | 740 | 740 | 410 | 610 | 1190 | 186
